One assay relates to human eosinophils. In words: Inhibition of histamine-induced eosinophil shape change (gated autofluorescence forward scatter assay). To be noted: for Fold Change: eosinophil shape change, 10 μM antagonist; for effect on histamine-induced shape change: human eosinophils, result in words.
For assay [1], the target named is T1, human histamine H4 receptor (Homo sapiens, UniProt Q9H3N8).
T1 construct: expressed in transfected cells; host or cells: SK-N-MC cells or COS7 cells, transient transfection; cell membranes
In words: Binding assay on recombinant human histamine H4 receptor (3H-histamine displacement). To be noted: membranes of SK-N-MC or COS7 cells expressing human H4 receptor, Cheng-Prusoff. How it is done: SK-N-MC cells or COS7 cells were transiently transfected with pH4R and grown in 150 cm^2 tissue culture dishes. Cells were washed with saline solution, scraped with a cell scraper and collected by centrifugation (1000 rpm, 5 min). Cell membranes were prepared by homogenization of the cell pellet in 20 mM Tris-HCl with a polytron tissue homogenizer for 10 sec at high speed. Homogenate was centrifuged at 1000 rpm for 5 min at 4° C. The supernatant was then collected and centrifuged at 20,000×g for 25 min at 4° C. The final pellet was resuspended in 50 mM Tris-HCl. Cell membranes were incubated with ^3H-histamine (5-70 nM) in the presence or absence of excess histamine (10,000 nM). Incubation occurred at room temperature for 45 min. Membranes were harvested by rapid filtration over Whatman GF/C filters and washed 4 times with ice-cold 50 mM Tris HCl. Filters were then dried, mixed with scintillant and counted for radioactivity. SK-N-MC or COS7 cells expressing human histamine H4 receptor were used to measure the affinity of binding of other compounds and their ability to displace ^3H-ligand binding by incubating the above-described reaction in the presence of various concentrations of inhibitor or compound to be tested.

T1 sequence (Q9H3N8 whole entry): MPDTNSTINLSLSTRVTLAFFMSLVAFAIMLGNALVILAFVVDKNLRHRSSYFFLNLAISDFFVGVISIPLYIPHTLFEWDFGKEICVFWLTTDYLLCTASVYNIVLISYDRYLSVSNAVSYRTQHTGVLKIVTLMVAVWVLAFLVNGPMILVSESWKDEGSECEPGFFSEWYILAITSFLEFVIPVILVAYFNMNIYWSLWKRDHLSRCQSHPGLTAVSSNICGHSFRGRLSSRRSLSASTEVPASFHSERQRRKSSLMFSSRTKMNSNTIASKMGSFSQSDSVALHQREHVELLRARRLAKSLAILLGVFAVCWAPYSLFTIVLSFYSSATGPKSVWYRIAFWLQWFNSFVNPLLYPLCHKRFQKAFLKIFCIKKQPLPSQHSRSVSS

As for `CN(C)CCOC(c1ccccc1)c1ccccc1` [diphenhydramine], the “Fold Change” value was 1.00 with human eosinophils (histamine 0 μM); 1.03 in the assay with human eosinophils (histamine 0.01 μM); 1.18 in the assay with human eosinophils (histamine 0.1 μM); 1.50 with human eosinophils (histamine 1 μM); 1.63 in the assay with human eosinophils (histamine 10 μM). Also, in the assay on human eosinophils, the “effect on histamine-induced shape change” value is recorded as “did not alter the histamine-induced shape change”.

For `Cc1[nH]c(-c2ccc(OCCCN3CCCN(C)CC3)c(Cl)c2)nc1-c1ccccc1` [Example 11, 1-{3-[2-Chloro-4-(5-methyl-4-phenyl-1H-imidazol-2-yl)-phenoxy]-propyl}-4-methyl-[1,4]diazepane], the inhibitory constant (Ki) in assay [1] was 70 nM.

As for `Cc1[nH]c(-c2ccc(OCCCC3CCN(C)CC3)nc2)nc1-c1ccc(C(F)(F)F)cc1` [Example 30, 2-[3-(1-Methyl-piperidin-4-yl)-propoxy]-5-[5-methyl-4-(4-trifluoromethyl-phenyl)-1H-imidazol-2-yl]-pyridine], in assay [1], the Ki is 64 nM.

On to `Cc1nc(-c2ccc(OCCCC3CCN(C)CC3)cc2Cl)[nH]c1CC(C)C` [Example 40, 4-{3-[3-Chloro-4-(5-isobutyl-4-methyl-1H-imidazol-2-yl)-phenoxy]-propyl}-1-methyl-piperidine], for which the inhibitory constant (Ki) in assay [1] stood at 93 nM.

As for `Cc1[nH]c(-c2ccc(OCCCC3CCN(C)CC3)nc2)nc1-c1cccc(C(F)(F)F)c1` [Example 29, 2-[3-(1-Methyl-piperidin-4-yl)-propoxy]-5-[5-methyl-4-(3-trifluoromethyl-phenyl)-1H-imidazol-2-yl]-pyridine], the inhibition constant Ki in assay [1] stood at 42 nM.

As to `COc1ccc(-c2nc(-c3ccc(OCCCN4CCN(C)CC4)cc3Cl)[nH]c2-c2ccc(OC)cc2)cc1` [Example 4, 1-(3-{4-[4,5-Bis-(4-methoxy-phenyl)-1H-imidazol-2-yl]-3-chloro-phenoxy}-propyl)-4-methyl-piperazine], the inhibitory constant (Ki) in assay [1] was 44 nM.

On to `Cc1[nH]c(-c2cccc(OCCCCC3CCN(C)CC3)c2)nc1-c1ccc(C(F)(F)F)cc1` [Example 41, 1-Methyl-4-(4-{3-[5-methyl-4-(4-trifluoromethyl-phenyl)-1H-imidazol-2-yl]-phenoxy}-butyl)-piperidine], for which, in assay [1], the Ki turned out to be 250 nM.

For `CN1CCCN(CCCOc2ccc(-c3nc(-c4ccccc4)c(C(F)(F)F)[nH]3)cc2Cl)CC1` [Example 45, 1-{3-[2-Chloro-4-(4-phenyl-5-trifluoromethyl-1H-imidazol-2-yl)-phenoxy]-propyl}-4-methyl-[1,4]diazepane], the Ki in assay [1] amounted to 79 nM.

For the compound `CN1CCN(CCCOc2ccc(-c3ncc[nH]3)cc2Cl)CC1` [Example 42, 1-{3-[2-Chloro-4-(1H-imidazol-2-yl)-phenoxy]-propyl}-4-methyl-piperazine], the Ki in assay [1] is 1960 nM.

Regarding `CN1CCC(CCCCOc2cc(-c3nc(-c4ccccc4)c(C(F)(F)F)[nH]3)ccn2)CC1` [Example 36, 2-[4-(1-Methyl-piperidin-4-yl)-butoxy]-4-(4-phenyl-5-trifluoromethyl-1H-imidazol-2-yl)-pyridine], the Ki in assay [1] came out at 54 nM.

`Cc1cc(OCCOC2CCN(C)CC2)ccc1-c1nc(-c2cccc(C(F)(F)F)c2)c(C)[nH]1` [Example 26, 1-Methyl-4-(2-{3-methyl-4-[5-methyl-4-(3-trifluoromethyl-phenyl)-1H-imidazol-2-yl]-phenoxy}-ethoxy)-piperidine]: in assay [1], the Ki amounted to 300 nM.

With `CN1CCCN(CCCOc2ccc(-c3nc(-c4ccc(Br)cc4)c(-c4ccc(Br)cc4)[nH]3)c(Cl)c2)CC1` [Example 9, 1-(3-{4-[4,5-Bis-(4-bromo-phenyl)-1H-imidazol-2-yl]-3-chloro-phenoxy}-propyl)-4-methyl-[1,4]diazepane], the Ki in assay [1] stood at 11 nM.

As to `Cc1cc(OCCCC2CCN(C)CC2)ccc1-c1nc(-c2ccccc2)c(C(F)(F)F)[nH]1` [Example 14, 1-Methyl-4-{3-[3-methyl-4-(4-phenyl-5-trifluoromethyl-1H-imidazol-2-yl)-phenoxy]-propyl}-piperidine], in assay [1], the inhibition constant Ki turned out to be 32 nM.

As to `Cc1ccc(-c2nc(-c3ccc(OCCCN4CCN(C)CC4)cc3Cl)[nH]c2-c2ccc(C)cc2)cc1` [Example 5, 1-{3-[3-Chloro-4-(4,5-di-p-tolyl-1H-imidazol-2-yl)-phenoxy]-propyl}-4-methyl-piperazine], the inhibition constant (Ki) in assay [1] came to 24 nM.

Take `CCc1[nH]c(-c2ccc(OCCCC3CCN(C)CC3)cc2Cl)nc1C` [Example 25, 4-{3-[3-Chloro-4-(5-ethyl-4-methyl-1H-imidazol-2-yl)-phenoxy]-propyl}-1-methylpiperidine]: the Ki in assay [1] came out at 100 nM.

With `Cc1cc(OCCCC2CCN(C)CC2)ccc1-c1nc(-c2cccc(C(F)(F)F)c2)c(C)[nH]1` [Example 46, 1-Methyl-4-(3-{3-methyl-4-[5-methyl-4-(3-trifluoromethyl-phenyl)-1H-imidazol-2-yl]-phenoxy}-propyl)-piperidine], in assay [1], the Ki came out at 16 nM.

Turning to `Cc1cc(OCCCC2CCN(C)CC2)ccc1-c1nc(-c2ccc(Cl)cc2)c(C)[nH]1` [Example 47, 4-(3-{4-[4-(4-Chloro-phenyl)-5-methyl-1H-imidazol-2-yl]-3-methyl-phenoxy}-propyl)-1-methyl-piperidine], the Ki in assay [1] amounted to 33 nM.

Take `CN1CCCN(CCCOc2ccc(-c3nc4c([nH]3)CCCC4)cc2Cl)CC1` [Example 12, 2-{3-Chloro-4-[3-(4-methyl-[1,4]diazepan-1-yl)-propoxy]-phenyl}-4,5,6,7-tetrahydro-1H-benzoimidazole]: the inhibition constant Ki in assay [1] was 65 nM.

On to `CNC(=C[N+](=O)[O-])NCCSCc1ccc(CN(C)C)o1` [ranatidine], for which the “Fold Change” value in the assay on human eosinophils (histamine 0 μM) stood at 1.00; in the assay on human eosinophils (histamine 0.01 μM) it was 1.04; in the assay with human eosinophils (histamine 0.1 μM), 1.21; with human eosinophils (histamine 1 μM), 1.49; in the assay with human eosinophils (histamine 10 μM), 1.64. For the same compound, the “effect on histamine-induced shape change” value in the assay on human eosinophils is “did not alter the histamine-induced shape change”.

Consider `CN1CCN(C(=O)c2cc3cc(Cl)ccc3[nH]2)CC1` [H4 Antagonist, (5-chloro-1H-indol-2-yl)-(4-methyl-piperazin-1-yl)-methanone], for which, in the assay with human eosinophils (Homo sapiens, Eosinophil, read-out: IC50 of inhibition of histamine-induced eosinophil shape change), the 50% inhibitory concentration (IC50) was 270 nM.

As usually defined, the Ki is the equilibrium dissociation constant of an inhibitor or competing ligand from its target. For orientation: IC50 means the concentration that inhibits the measured activity by half.

For the origin of these results see patent publication US8017600B2, “Imidazole compounds” (Janssen Pharmaceutica NV, priority 2004, dated 2011).
